From ChEMBL document CHEMBL1201862, “PubChem BioAssay data set” (2004)
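48-hour exposure; five concentrations; linearly interpolated endpoints. Here, GI50 denotes the concentration required for 50% inhibition of growth.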 Activity calls are given as the source filed them. Cut-off read from the data, not from the text of the source: active = GI50 up to about 1.1 µM and inactive = higher.

Assays:
Assay in all cases: NCI anticancer screen, dose series, 48 h
SK-MEL-2 = test system: SK-MEL-2
NCI-H460 = test system: NCI-H460
KM-20L2 = test system: KM-20L2
KM12 = test system: KM12
MCF7 = test system: MCF7
HL-60 = test system: HL-60
CAKI-1 = test system: CAKI-1
SN12C = test system: SN12C
SW-620 = test system: SW-620
DMS-114 = test system: DMS-114
SF-295 = test system: SF-295
M19-MEL = test system: M19-MEL
DMS-273 = test system: DMS-273
DLD-1 = test system: DLD-1
HT-29 = test system: HT-29
UACC-257 = test system: UACC-257
COLO 205 = test system: COLO 205
RXF 393 = test system: RXF 393
HCT-15 = test system: HCT-15
SNB-78 = test system: SNB-78
OVCAR-4 = test system: OVCAR-4
OVCAR-5 = test system: OVCAR-5
Malme-3M = test system: Malme-3M
RPMI-8226 = test system: RPMI-8226
OVCAR-3 = test system: OVCAR-3
NCI-H23 = test system: NCI-H23
NCI-H226 = test system: NCI-H226
UACC-62 = test system: UACC-62
HOP-62 = test system: HOP-62
K562 = test system: K562
EKVX = test system: EKVX
HCC 2998 = test system: HCC 2998
SK-OV-3 = test system: SK-OV-3
OVCAR-8 = test system: OVCAR-8
U-251 = test system: U-251
HCT-116 = test system: HCT-116
SF-539 = test system: SF-539
CCRF-CEM = test system: CCRF-CEM
SK-MEL-28 = test system: SK-MEL-28
A498 = test system: A498
SNB-75 = test system: SNB-75
MOLT-4 = test system: MOLT-4
NCI-H522 = test system: NCI-H522
HOP-18 = test system: HOP-18
UO-31 = test system: UO-31
NCI/ADR-RES = test system: NCI/ADR-RES
SNB-19 = test system: SNB-19
LOX IMVI = test system: LOX IMVI
A549 = test system: A549
SF-268 = test system: SF-268
IGROV-1 = test system: IGROV-1
SK-MEL-5 = test system: SK-MEL-5
HOP-92 = test system: HOP-92
XF498 = test system: XF498
TK-10 = test system: TK-10
SR = test system: SR
786-0 = test system: 786-0
ACHN = test system: ACHN
BT-549 = test system: BT-549
T47D = test system: T47D
Hs-578T = test system: Hs-578T
MDA-MB-435 = test system: MDA-MB-435
MDA-MB-231 = test system: MDA-MB-231
DU-145 = test system: DU-145
PC-3 = test system: PC-3
MDA-N = test system: MDA-N
M14 = test system: M14

In the case of Cc1nc2ccccc2c(=O)n1Nc1ccc(C(=O)O)cc1, the GI50 (SK-MEL-2) is reported as > 100 µM (inactive), the GI50 (NCI-H460) is reported as > 100 µM (inactive) and the GI50 (KM-20L2) is reported as > 100 µM (inactive). For the same compound, the GI50 (KM12) was > 100 µM (inactive), the GI50 (MCF7) was > 100 µM (inactive) and the GI50 (HL-60) was > 100 µM (inactive). For the same compound, the GI50 (CAKI-1) was > 100 µM (inactive), the GI50 (SN12C) was > 100 µM (inactive) and the GI50 (SW-620) was > 100 µM (inactive). For the same compound, the GI50 (DMS-114) was > 100 µM (inactive), the GI50 (SF-295) was > 100 µM (inactive) and the GI50 (M19-MEL) was > 100 µM (inactive). The GI50 (DMS-273) was > 100 µM (inactive), the GI50 (DLD-1) was > 100 µM (inactive) and the GI50 (HT-29) was > 100 µM (inactive). For the same compound, the GI50 (UACC-257) was > 100 µM (inactive), the GI50 (COLO 205) was > 100 µM (inactive) and the GI50 (RXF 393) was > 100 µM (inactive). The GI50 (HCT-15) was > 100 µM, the GI50 (SNB-78) was > 100 µM (inactive) and the GI50 (OVCAR-4) was > 100 µM (inactive). For the same compound, the GI50 (OVCAR-5) was > 100 µM (inactive), the GI50 (Malme-3M) was > 100 µM (inactive) and the GI50 (RPMI-8226) was > 100 µM (inactive). The GI50 (OVCAR-3) was > 100 µM (inactive), the GI50 (NCI-H23) was > 100 µM (inactive) and the GI50 (NCI-H226) was > 100 µM (inactive). The GI50 (UACC-62) was > 100 µM (inactive), the GI50 (HOP-62) was > 100 µM (inactive) and the GI50 (K562) was > 100 µM (inactive). For the same compound, the GI50 (EKVX) was > 100 µM (inactive), the GI50 (HCC 2998) was > 100 µM (inactive) and the GI50 (SK-OV-3) was > 100 µM (inactive). The GI50 (OVCAR-8) was > 100 µM (inactive), the GI50 (U-251) was > 100 µM (inactive) and the GI50 (HCT-116) was > 100 µM (inactive). For the same compound, the GI50 (SF-539) was > 100 µM (inactive), the GI50 (CCRF-CEM) was > 100 µM (inactive) and the GI50 (SK-MEL-28) was > 100 µM (inactive). For the same compound, the GI50 (A498) was > 100 µM (inactive), the GI50 (SNB-75) was > 100 µM (inactive) and the GI50 (MOLT-4) was > 100 µM (inactive). For the same compound, the GI50 (NCI-H522) was > 100 µM (inactive), the GI50 (HOP-18) was > 100 µM (inactive) and the GI50 (UO-31) was > 100 µM (inactive). For the same compound, the GI50 (NCI/ADR-RES) was > 100 µM (inactive), the GI50 (SNB-19) was > 100 µM (inactive) and the GI50 (LOX IMVI) was > 100 µM (inactive). The GI50 (A549) was > 100 µM (inactive), the GI50 (SF-268) was > 100 µM (inactive) and the GI50 (IGROV-1) was > 100 µM (inactive). For the same compound, the GI50 (SK-MEL-5) was > 100 µM (inactive), the GI50 (HOP-92) was > 100 µM (inactive) and the GI50 (XF498) was > 100 µM (inactive).

For COc1ccc(C(CCC(C)=O)C(=O)O)cc1OC (stereo not drawn), the GI50 (TK-10) was > 100 µM (inactive), the GI50 (SR) was > 100 µM (inactive) and the GI50 (SK-MEL-2) was > 100 µM (inactive). For the same compound, the GI50 (NCI-H460) was > 100 µM (inactive), the GI50 (KM-20L2) was > 100 µM (inactive) and the GI50 (KM12) was > 100 µM (inactive). The GI50 (786-0) was > 100 µM (inactive), the GI50 (CAKI-1) was > 100 µM (inactive) and the GI50 (SN12C) was > 100 µM (inactive). For the same compound, the GI50 (SW-620) was > 100 µM (inactive), the GI50 (SF-295) was > 100 µM (inactive) and the GI50 (M19-MEL) was > 100 µM (inactive). For the same compound, the GI50 (DMS-273) was > 100 µM (inactive), the GI50 (DLD-1) was > 100 µM (inactive) and the GI50 (HT-29) was > 100 µM (inactive). For the same compound, the GI50 (UACC-257) was > 100 µM (inactive), the GI50 (COLO 205) was > 100 µM (inactive) and the GI50 (RXF 393) was > 100 µM (inactive). The GI50 (HCT-15) was > 100 µM, the GI50 (SNB-78) was > 100 µM (inactive) and the GI50 (OVCAR-4) was > 100 µM (inactive). For the same compound, the GI50 (OVCAR-5) was > 100 µM (inactive), the GI50 (Malme-3M) was > 100 µM (inactive) and the GI50 (RPMI-8226) was > 100 µM (inactive). The GI50 (OVCAR-3) was > 100 µM (inactive), the GI50 (NCI-H23) was > 100 µM (inactive) and the GI50 (UACC-62) was > 100 µM (inactive). For the same compound, the GI50 (HOP-62) was > 100 µM (inactive), the GI50 (K562) was > 100 µM (inactive) and the GI50 (EKVX) was > 100 µM (inactive). For the same compound, the GI50 (OVCAR-8) was > 100 µM (inactive), the GI50 (U-251) was > 100 µM (inactive) and the GI50 (HCT-116) was > 100 µM (inactive). For the same compound, the GI50 (SF-539) was > 100 µM (inactive), the GI50 (SK-MEL-28) was > 100 µM (inactive) and the GI50 (A498) was > 100 µM (inactive). For the same compound, the GI50 (SNB-75) was > 100 µM (inactive), the GI50 (ACHN) was > 100 µM (inactive) and the GI50 (HOP-18) was > 100 µM (inactive). The GI50 (SNB-19) was > 100 µM (inactive), the GI50 (LOX IMVI) was > 100 µM (inactive) and the GI50 (A549) was > 100 µM (inactive). The GI50 (SF-268) was > 100 µM (inactive), the GI50 (IGROV-1) was > 100 µM (inactive) and the GI50 (SK-MEL-5) was > 100 µM (inactive). For the same compound, the GI50 (HOP-92) was > 100 µM (inactive) and the GI50 (XF498) was > 100 µM (inactive).

For O=C1NC(=O)C2C3C=CC(C12)C1C2C(=O)NC(=O)C2C31 (stereo not drawn), the GI50 (TK-10) was > 250 µM (inactive), the GI50 (SR) was 135 µM (inactive) and the GI50 (SK-MEL-2) was 173 µM (inactive). The GI50 (NCI-H460) was 53.7 µM (inactive), the GI50 (KM-20L2) was 208 µM (inactive) and the GI50 (KM12) was 220 µM (inactive). The GI50 (786-0) was 682 µM (inactive), the GI50 (MCF7) was 164 µM (inactive) and the GI50 (HL-60) was 183 µM (inactive). For the same compound, the GI50 (BT-549) was > 250 µM (inactive), the GI50 (CAKI-1) was 203 µM (inactive) and the GI50 (SN12C) was 192 µM (inactive). The GI50 (SW-620) was 167 µM (inactive), the GI50 (T47D) was > 250 µM (inactive) and the GI50 (DMS-114) was 125 µM (inactive). For the same compound, the GI50 (SF-295) was 174 µM (inactive), the GI50 (M19-MEL) was 177 µM (inactive) and the GI50 (DMS-273) was 116 µM (inactive). The GI50 (DLD-1) was 228 µM (inactive), the GI50 (HT-29) was 177 µM (inactive) and the GI50 (UACC-257) was 238 µM (inactive). The GI50 (Hs-578T) was 100 µM (inactive), the GI50 (COLO 205) was 82.4 µM (inactive) and the GI50 (RXF 393) was 220 µM (inactive). For the same compound, the GI50 (HCT-15) was 237 µM, the GI50 (SNB-78) was 204 µM (inactive) and the GI50 (OVCAR-4) was 223 µM (inactive). The GI50 (OVCAR-5) was > 250 µM (inactive), the GI50 (Malme-3M) was 187 µM (inactive) and the GI50 (RPMI-8226) was 185 µM (inactive). The GI50 (OVCAR-3) was 242 µM (inactive), the GI50 (MDA-MB-435) was > 1000 µM (inactive) and the GI50 (MDA-MB-231) was > 250 µM (inactive). The GI50 (NCI-H23) was 245 µM (inactive), the GI50 (DU-145) was > 250 µM (inactive) and the GI50 (NCI-H226) was 177 µM (inactive). For the same compound, the GI50 (UACC-62) was 107 µM (inactive), the GI50 (HOP-62) was 74.3 µM (inactive) and the GI50 (K562) was 234 µM (inactive). The GI50 (EKVX) was 234 µM (inactive), the GI50 (HCC 2998) was 221 µM (inactive) and the GI50 (PC-3) was 217 µM (inactive). The GI50 (SK-OV-3) was 98.6 µM (inactive), the GI50 (OVCAR-8) was 203 µM (inactive) and the GI50 (U-251) was 203 µM (inactive). The GI50 (HCT-116) was 211 µM (inactive), the GI50 (SF-539) was 191 µM (inactive) and the GI50 (CCRF-CEM) was 54.8 µM (inactive). The GI50 (SK-MEL-28) was 222 µM (inactive), the GI50 (A498) was 158 µM (inactive) and the GI50 (SNB-75) was 197 µM (inactive). The GI50 (ACHN) was > 250 µM (inactive), the GI50 (MOLT-4) was > 100 µM (inactive) and the GI50 (NCI-H522) was 151 µM (inactive). For the same compound, the GI50 (HOP-18) was 222 µM (inactive), the GI50 (MDA-N) was 701 µM (inactive) and the GI50 (UO-31) was 211 µM (inactive). The GI50 (NCI/ADR-RES) was > 250 µM (inactive), the GI50 (SNB-19) was 149 µM (inactive) and the GI50 (LOX IMVI) was 241 µM (inactive). For the same compound, the GI50 (A549) was 93.8 µM (inactive), the GI50 (SF-268) was > 250 µM (inactive) and the GI50 (IGROV-1) was 186 µM (inactive). For the same compound, the GI50 (SK-MEL-5) was 195 µM (inactive), the GI50 (HOP-92) was 128 µM (inactive) and the GI50 (XF498) was 143 µM (inactive). For the same compound, the GI50 (M14) was 240 µM (inactive).
